From patent US11236047B2 (ASTEX THERAPEUTICS LIMITED, priority 2017, dated 2022) come the findings set out here.

The test system of one assay is SJSA-1 cells. As to the kind of experiment: Protocol B: SJSA-1 CellTiter-Glo luminescent cell viability assay. The note with it: for pIC50: read-out: SJSA1 IC50, Protocol B, SJSA-1; for inhibition at 10 µM: SJSA-1, read-out: SJSA1 % inhibition at 10. In general terms: In ATP-based viability assays light output follows the ATP content of the culture.
Another assay concerns the target MDM2-p53 interaction (Homo sapiens (Human), UniProt Q00987). To be noted: for inhibition at 0.001 µM: read-out: MDM2 % inhibition @0.0010; for inhibition at 0.03 µM: read-out: MDM2 % inhibition @0.030; for inhibition at 0.1 µM: read-out: MDM2 % inhibition @0.10.
Where [1] appears, read: read-out: SJSA1 IC50 (μM) (Protocol B), SJSA-1, Protocol B.

pIC50: −log10 of the molar value. Where two headings read alike, the source gives them in different places.

Chain of MDM2-p53 interaction (Q00987 whole entry): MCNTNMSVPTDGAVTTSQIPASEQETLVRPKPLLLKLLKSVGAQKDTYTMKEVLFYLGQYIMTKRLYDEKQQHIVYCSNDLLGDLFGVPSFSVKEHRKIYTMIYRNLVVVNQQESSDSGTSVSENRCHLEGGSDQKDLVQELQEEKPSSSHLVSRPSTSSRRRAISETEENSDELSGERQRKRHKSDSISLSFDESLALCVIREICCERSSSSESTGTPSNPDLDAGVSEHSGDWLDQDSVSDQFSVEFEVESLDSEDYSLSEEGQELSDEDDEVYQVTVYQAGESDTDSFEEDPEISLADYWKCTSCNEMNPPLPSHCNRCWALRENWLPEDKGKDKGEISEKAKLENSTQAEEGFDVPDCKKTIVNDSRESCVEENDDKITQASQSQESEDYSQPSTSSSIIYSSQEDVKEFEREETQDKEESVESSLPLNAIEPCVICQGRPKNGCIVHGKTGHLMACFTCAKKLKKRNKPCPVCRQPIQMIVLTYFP
Protocol for MDM2-p53 interaction: MDM2-053 Interaction Using a 96-Well Plate Binding Assay (ELISA)
The ELISA assay was performed in streptavidin coated plates which were preincubated with 200 μl per well of 1 μg ml^−1 biotinylated IP3 peptide. The plates were ready to use for MDM2 binding after washing the plate with PBS.
The bound HRP activity was measured by enhanced chemiluminesence (ECL™, Amersham Biosciences) using the oxidation of the diacylhydrazide substrate, luminol, to generate a quantifiable light signal. The percentage of MDM2 inhibition at a given concentration is calculated as the [1−(RLU detected in the compound treated sample−RLU negative DMSO control)÷(RLU of DMSO positive and negative controls)]×100 or as the (RLU detected in the compound treated sample÷RLU of DMSO controls)×100. The IC50 was calculated using a plot of % MDM2 inhibition vs concentration and is the average of two or three independent experiments.
Protocol for SJSA-1 cells: Protocol B: SJSA-1 and SN40R2 Assays
The CellTiter-Glo® Luminescent Cell Viability Assay is a homogeneous method to determine the number of viable cells in culture based on quantitation of the ATP present, which signals the presence of metabolically active cells. […] 100 μl of CTG reagent (Promega #G7573) was added to all wells and luminescence was measured on the topcount. The EC50 values were determined from a sigmoidal 4 parameter curve fit using XLfit in conjunction with Activity Base (IDBS; Guildford, Surrey, UK).

The pIC50 is the negative decadic logarithm of the IC50, by convention in mol/L. What is called inhibition is the change of the read-out against control, counted positive when it falls. For the compound `CCC(O)(c1cc(F)c2c(c1)C(=O)N(Cc1ccc(C#N)cn1)[C@@]2(O[C@H]1CCOC1)c1ccc(Cl)cc1)c1ccn(C)n1` (single isomer, unassigned) [Example 336], in the assay with SJSA-1 cells, the pIC50 was 6.80. At MDM2-p53 interaction, the inhibition at 0.001 µM worked out at 56%.
Broadly, the IC50 is the point on the concentration scale where inhibition reaches its midpoint. As for `Cn1cc(C(C)(O)c2cc(F)c3c(c2)C(=O)N(Cc2ncc(F)cc2F)[C@@]3(OCC2(O)CC2)c2ccc(Cl)cc2)cn1` (single isomer, unassigned) [Example 350], the IC50 in the assay on SJSA-1 cells (setting [1]) was 0.51 µM. The “MDM2 % at stated concentration” value on MDM2-p53 interaction (at 0.030 μM) was 54%@0.030.
`Cn1cc(C(C)(O)c2cc(F)c3c(c2)C(=O)N(Cc2ncc(F)cc2F)[C@@]3(OCC2(O)CC2)c2ccc(Cl)cc2)cn1` (single isomer, unassigned) [Example 351]: the IC50 with SJSA-1 cells (setting [1]) was determined as 4.3 µM. Also, the “MDM2 % at stated concentration” value on MDM2-p53 interaction (at 0.10 μM) came to 25%@0.10.
Turning to `CCC(O)(c1cc(F)c2c(c1)C(=O)N(Cc1ccc(C#N)cn1)[C@@]2(O[C@H]1CCOC1)c1ccc(Cl)cc1)c1cnn(C)c1` (single isomer, unassigned) [Example 358], the IC50 with SJSA-1 cells (setting [1]) stood at 0.039 µM. The “MDM2 % at stated concentration” value at MDM2-p53 interaction worked out at 74%@0.0010.
In the case of `CCC(O)(c1cc(F)c2c(c1)C(=O)N(Cc1ccc(C#N)cn1)[C@@]2(O[C@H]1CCOC1)c1ccc(Cl)cc1)c1cnn(C)c1` (single isomer, unassigned) [Example 359], the IC50 in the assay with SJSA-1 cells (setting [1]) worked out at 3.9 µM. Besides, the “MDM2 % at stated concentration” value at MDM2-p53 interaction (at 0.10 μM) is 50%@0.10.
For the compound `CO[C@]1(c2ccc(Cl)cc2)c2c(F)cc(C(C)(O)C3CCN(C(C)=O)CC3)cc2C(=O)N1Cc1ncc(Cl)cc1CO` (single isomer, unassigned) [Example 424], the IC50 in the assay on SJSA-1 cells (Homo sapiens, SJSA-1, read-out: SJSA1 IC50 (μM), Protocol B, SJSA-1) was 0.69 µM. Also, on MDM2-p53 interaction (read-out: MDM2 % inhibition @0.0030), the inhibition at 0.003 µM was determined as 45%.
Turning to `CCC(O)(c1cc(F)c2c(c1)C(=O)N(Cc1ccc(C#N)nc1)[C@@]2(O[C@H]1CCOC1)c1ccc(Cl)cc1)c1cn(C)cn1` (single isomer, unassigned) [Example 432], in the assay with SJSA-1 cells, the negative logarithm of the IC50 (pIC50) was 5.21. Moreover, the inhibition at 0.03 µM at MDM2-p53 interaction was found to be 45%.
In the case of `CCC(O)(c1cc(F)c2c(c1)C(=O)N(Cc1ncc(Cl)cn1)[C@@]2(OCC1(CO)CC1)c1ccc(Cl)cc1)c1cn(C)cn1` (single isomer, unassigned) [Example 477], the pIC50 with SJSA-1 cells is 8.04. Moreover, the inhibition at 0.001 µM at MDM2-p53 interaction amounted to 86%.
Take `CCC(O)(c1cc(F)c2c(c1)C(=O)N(Cc1ncc(C#N)cn1)[C@@]2(OC[C@H]1C[C@H](O)C1)c1ccc(Cl)cc1)c1cn(C)cn1` (single isomer, unassigned) [Example 483]: the pIC50 in the assay on SJSA-1 cells is 6.70. In addition, the inhibition at 0.001 µM on MDM2-p53 interaction amounted to 58%.
In the case of `CCC(O)(c1cc(F)c2c(c1)C(=O)N(Cc1ncc(Cl)cn1)[C@@]2(OCCO)c1ccc(Cl)cc1)[C@H]1CC[C@H](O)CC1` (single isomer, unassigned) [Example 519], the pIC50 in the assay on SJSA-1 cells was 5.72. Moreover, the inhibition at 0.03 µM on MDM2-p53 interaction stood at 35%.
Turning to `CCC(O)(CN1CCNCC1)c1cc(F)c2c(c1)C(=O)N(Cc1ncc(Cl)cn1)[C@@]2(OCC1(F)COC1)c1ccc(Cl)cc1` (single isomer, unassigned) [Example 539], the pIC50 in the assay with SJSA-1 cells was 7.04. Moreover, on MDM2-p53 interaction, the inhibition at 0.001 µM stood at 41%.
Take `CCC(O)(c1cc(F)c2c(c1)C(=O)N(Cc1ncc(Cl)cn1)[C@@]2(O[C@H]1CCOC1)c1ccc(Cl)cc1)C1(F)CCNCC1` (single isomer, unassigned) [Example 541]: the pIC50 with SJSA-1 cells is 7.85. The inhibition at 0.0003 µM on MDM2-p53 interaction (read-out: MDM2 % inhibition @0.00030) came out at 64%.
For `COc1ccc(CN2C(=O)c3cc(C(C)(O)c4cnn(C)c4)cc(F)c3[C@]2(OCC2(O)CC2)c2ccc(Cl)cc2)nc1` (stereo partly drawn) [Example 228, (3R)-3-(4-chlorophenyl)-4-fluoro-6-[1-hydroxy-1-(1-methyl-1H-pyrazol-4-yl)ethyl]-3-[(1-hydroxycyclopropyl)methoxy]-2-[(5-methoxypyridin-2-yl)methyl]-2,3-dihydro-1H-isoindol-1-one], the half-maximal inhibitory concentration (IC50) in the assay with SJSA-1 cells (setting [1]) came to 0.21 µM. The “MDM2 % at stated concentration” value on MDM2-p53 interaction (at 0.010 μM) worked out at 61%@0.010.
Regarding `COc1ccc(CN2C(=O)c3cc(C(C)(O)c4cnn(C)c4)cc(F)c3[C@]2(OCC2(O)CC2)c2ccc(Cl)cc2)nc1` (stereo partly drawn) [Example 347, (3R)-3-(4-chlorophenyl)-4-fluoro-6-[1-hydroxy-1-(1-methyl-1H-pyrazol-4-yl)ethyl]-3-[(1-hydroxycyclopropyl)methoxy]-2-[(5-methoxypyridin-2-yl)methyl]-2,3-dihydro-1H-isoindol-1-one], in the assay with SJSA-1 cells (setting [1]), the IC50 was found to be 1.7 µM. The “MDM2 % at stated concentration” value at MDM2-p53 interaction (at 0.10 μM) was 63%@0.10.
For `CCCC(O)(c1cc(F)c2c(c1)C(=O)N(Cc1ccc(C#N)cn1)[C@@]2(O[C@H]1CCOC1)c1ccc(Cl)cc1)c1cn(C)cn1` (stereo partly drawn) [Example 473, 6-{[(1R)-1-(4-chlorophenyl)-7-fluoro-5-[1-hydroxy-1-(1-methyl-1H-imidazol-4-yl)butyl]-3-oxo-1-[(3S)-oxolan-3-yloxy]-2,3-dihydro-1H-isoindol-2-yl]methyl}pyridine-3-carbonitrile], at MDM2-p53 interaction, the inhibition at 0.1 µM turned out to be 44%.
Regarding `CCC(O)(c1cc(F)c2c(c1)C(=O)N(Cc1ncc(Cl)cn1)[C@@]2(OCC1(C(N)=O)CC1)c1ccc(Cl)cc1)c1cn(C)cn1` (stereo partly drawn) [Example 485, 1-({[(1R)-1-(4-chlorophenyl)-2-[(5-chloropyrimidin-2-yl)methyl]-7-fluoro-5-[1-hydroxy-1-(1-methyl-1H-imidazol-4-yl)propyl]-3-oxo-2,3-dihydro-1H-isoindol-1-yl]oxy}methyl)cyclopropane-1-carboxamide], the negative-log IC50 (pIC50) in the assay on SJSA-1 cells is 5.38. For the same compound, the inhibition at 0.1 µM on MDM2-p53 interaction was determined as 58%.
Take `CCC(O)(c1cc(F)c2c(c1)C(=O)N(Cc1ncc(Cl)cc1O)[C@@]2(O[C@H]1C[C@@H](O)C1)c1ccc(Cl)cc1)c1cn(C)cn1` (stereo partly drawn) [Example 488, (3R)-2-[(5-chloro-3-hydroxypyridin-2-yl)methyl]-3-(4-chlorophenyl)-4-fluoro-6-[1-hydroxy-1-(1-methyl-1H-imidazol-4-yl)propyl]-3-[cis-3-hydroxycyclobutoxy]-2,3-dihydro-1H-isoindol-1-one]: the inhibition at 0.1 µM on MDM2-p53 interaction came to 56%.
As for `CCC(O)(c1cc(F)c2c(c1)C(=O)N(Cc1ccc(C#N)cn1)[C@@]2(OC[C@@H](C)O)c1ccc(Cl)cc1)C1(F)CCOCC1` (stereo partly drawn) [Example 498, 6-{[(1R)-1-(4-chlorophenyl)-7-fluoro-5-[1-(4-fluorooxan-4-yl)-1-hydroxypropyl]-1-[(2R)-2-hydroxypropoxy]-3-oxo-2,3-dihydro-1H-isoindol-2-yl]methyl}pyridine-3-carbonitrile], the inhibition at 10 µM in the assay with SJSA-1 cells (Homo sapiens) is 96%. The inhibition at 0.1 µM at MDM2-p53 interaction stood at 32%.
The corresponding values for `CCC(O)(c1cc(F)c2c(c1)C(=O)N(Cc1ccc(C#N)cn1)[C@@]2(OCCO)c1ccc(Cl)cc1)C1(F)CCOCC1` (stereo partly drawn) [Example 500, 6-{[(1R)-1-(4-chlorophenyl)-7-fluoro-5-[1-(4-fluorooxan-4-yl)-1-hydroxypropyl]-1-(2-hydroxyethoxy)-3-oxo-2,3-dihydro-1H-isoindol-2-yl]methyl}pyridine-3-carbonitrile] are 16% and 21%.
`CC[C@](O)(c1cc(F)c2c(c1)C(=O)N(Cc1ncc(Cl)cn1)[C@@]2(O[C@H]1CCOC1)c1ccc(Cl)cc1)C1CCN(C)CC1` [Example 567, (3R)-3-(4-chlorophenyl)-2-[(5-chloropyrimidin-2-yl)methyl]-4-fluoro-6-[(1R)-1-hydroxy-1-(1-methylpiperidin-4-yl)propyl]-3-[(3S)-oxolan-3-yloxy]-2,3-dihydro-1H-isoindol-1-one]: the inhibition at 0.1 µM on MDM2-p53 interaction came out at 57%.
